Data set [1] concerns E. coli ATCC 25922 or P. aeruginosa K2732. The experiment in a line: Bacterial cytological profiling (Example 6), cell viability, strain not stated. Format: cell-based. The conditions noted are these: within minutes, from initial 10^9 CFU/mL. On the procedure: This bacterial cytological profiling (BCP) study uses methods and materials described previously by Nonejuie, P., Burkart, M., Poglianoa, K., Pogiano, J. (2013). Bacterial cytological profiling rapidly identifies the cellular pathways targeted by antibacterial molecules. Proc. Natl. Acad. Sci. U.S.A. 110(40):16169-16174. doi: 10.1073/pnas.1311066110.
Wild type strains of E. coli ATCC 25922 or P. aeruginosa K2732 are grown in rich media (unbuffered 2× Lysogeny broth [LB]) at 30 C to an OD600˜0.4. These cultures are then split and each sample treated with the appropriate concentration of Nu-8 in unbuffered or buffered LB (final mixture OD600˜0.1). Cells exposed without Nu-8 are buffered to pH 4 with phosphoric acid.
The BCP is performed in LB media buffered to pH 4. The minimum inhibitory concentration (MIC) is measured for Nu-3, Nu-4, Nu-5, and Nu-8 against each bacterial strain. As one of ordinary skill in the art understands, minimum inhibitory concentrations are the lowest concentration of an antimicrobial that will inhibit the visible growth of a microorganism after overnight incubation. […] Cellular viability is assayed at three time points (5 minutes and 4 and 24 h following the onset of treatment).

Data set [2] is described as follows: pKa measurement. Format: physicochemical.
Data set [3] relates to E. coli. The experiment in a line: MIC in lysogeny broth (LB) at pH 4. Format: cell-based. The conditions noted are these: Escherichia coli. Here is the method: (§1) The MICs are also determined using lysogeny broth (LB) at pH 4 as the growth medium. Under these conditions, Nu-8 is active against E. coli and P. aeruginosa with MICs of 54 and 27 mg/mL, respectively.
Data set [4] has as its system P. aeruginosa. The experiment in a line: MIC in lysogeny broth (LB) at pH 4. Format: cell-based. The conditions noted are these: Pseudomonas aeruginosa. On the procedure: as §1
In data set [5] the test system is Escherichia coli (strain CFT073, TPPS 1041). The experiment in a line: Urinary tract infection model in BALB/c mice, confirmatory efficacy (Example 11). The data set is classed as in vivo. The conditions noted are these: for bacterial burden (bladder): 20 minutes post-treatment. The text has this:
Female BALB/c mice (20-22 g) ordered from Envigo are acclimated to housing conditions and handled in accordance with Animal Use Protocol (AUP) number TP-08. Animals are fed irradiated Teklad Global 29 18 Rodent Diet and water ad libitum. Mice are housed 6/cage in static cages with irradiated ⅛″ Teklad corn cobbedding 7902 inside bioBubble® clean rooms that provide H.E.P.A filtered air into the bubble environment at 100 complete air changes per hour. The environment is controlled to a temperature range of 74°±4° F. and a humidity range of 30-70%. All procedures carried out in this experiment are conducted in compliance with the laws, regulations, and guidelines of the National Institutes of Health and with the approval of the TransPharm Preclinical Solutions Animal Care and Use Committee.
A clinical isolate of Escherichia coli (strain CFT073, TPPS 1041) are procured from the University of Michigan.
The organism is grown overnight at 37° C. in ambient atmosphere on trypticase soy agar plates supplemented with 5% sheep blood cells. The culture is aseptically swabbed and transferred to tubes of trypticase soy broth. The optical density is determined at 600 nm. The culture is diluted to provide an inoculum of approximately 7.5 login CFU per mouse in a volume of 30 μL. Instillation of the bacterial challenge constituted time 0 hour for the study. Inoculum counts are estimated before inoculation by optical density and confirmed after inoculation by dilution and back counts.
One hour prior to bacterial challenge, water is removed from animal cages. On Day 0 at 0 hours, mice are anesthetized using isoflurane and urine is expressed from the bladder by applying gentle pressure to the abdomen with the thumb. Mice are infected with bacteria via transurethral injection in a volume of 30 μL. Water is returned to the cages immediately following the challenge. Challenge is performed in a BL2 surgical suite.
Nu-8 (Test article) is prepared immediately before each dosing. Nu-8 is dissolved in sterile saline and adjusted to pH 3.5 with phosphoric acid. At 23 hours post-challenge, water is removed from animal cages. One hour later, mice are anesthetized using isoflurane and residual urine is expressed from the bladder. Mice are treated with test article or controls via transurethral dosing in a volume of 30 μL according to TABLE 9 (showing Animal Challenge and Treatment Schedule). All treatments are administered in a BSL2 surgical suite.
Immediately following treatment administration, the urethral opening is occluded using Locktite gel superglue. One drop of glue is placed at the urethral opening and the opening is held together for 5-10 seconds using tissue forceps to ensure the urethral opening is occluded and the adhesive is dry. Animals remained under anesthetic following urethral occlusion. […]

For orientation: pKa means the pH at which an ionisable group is half protonated. Read a high pKa as a group that holds its proton tightly. In general, MIC refers to the lowest concentration that inhibits growth of the organism. In the case of `CCCCOP(=O)(O)OC[C@H]1O[C@@H](n2ccc(N)nc2=O)C[C@@H]1OP(=O)(O)OCCCC` [Nu-8, sodium ((2R,3S,5R)-5-(4-amino-2-oxopyrimidin-1(2H)-yl)-3-((butoxyoxidophosphor-yl)oxy)tetrahydrofuran-2-yl)methyl butyl phosphate], the cell viability in data set [1] is < 10^2 CFU/mL. The pKa in data set [2] was 3.2. Further, the minimum inhibitory concentration (MIC) was found to be 54 mg/mL in data set [3] and 27 mg/mL in data set [4]. The “bacterial burden (bladder)” value in data set [5] (205 mg/kg pH 3.5 transurethral) was 6.5 log 10; in data set [5] (410 mg/kg pH 3.5 transurethral), 5.0 log 10; in data set [5] (820 mg/kg pH 3.5 transurethral) it was 5.4 log 10. For the same molecule, the “average bladder CFU burden” value in data set [5] (820 mg/kg pH 3.5 transurethral, 10 minutes post-treatment) worked out at 6.3 log 10.

The values are drawn from patent US12054509B2, “Antimicrobial compounds, compositions, and uses thereof” (Lakewood Amedex, Inc., priority 2017, dated 2024).
